Laboratory results: patent US20080300243A1, “Amide Derivatives as Ion-Channel Ligands and Pharmaceutical Compositions and Methods of Using the Same” (priority 2005, published 2008)

Target: VR1 (Homo sapiens, UniProt Q8NER1)
Test: Calcium uptake assay, low pH (proton) stimulus
Assay type: cell-based
Parameters: expressed in transfected cells; host or cells: T-REx HEK 293 (Invitrogen), pcDNA5/TO vector
Settings: 0.3 μM compound, low pH agonist, HEK 293 cells expressing hVR1; for inhibition at 0.3 µM: HEK293, read-out: Low pH % Inhib. @ 0.3 μM

VR1, sequence (Q8NER1 whole entry): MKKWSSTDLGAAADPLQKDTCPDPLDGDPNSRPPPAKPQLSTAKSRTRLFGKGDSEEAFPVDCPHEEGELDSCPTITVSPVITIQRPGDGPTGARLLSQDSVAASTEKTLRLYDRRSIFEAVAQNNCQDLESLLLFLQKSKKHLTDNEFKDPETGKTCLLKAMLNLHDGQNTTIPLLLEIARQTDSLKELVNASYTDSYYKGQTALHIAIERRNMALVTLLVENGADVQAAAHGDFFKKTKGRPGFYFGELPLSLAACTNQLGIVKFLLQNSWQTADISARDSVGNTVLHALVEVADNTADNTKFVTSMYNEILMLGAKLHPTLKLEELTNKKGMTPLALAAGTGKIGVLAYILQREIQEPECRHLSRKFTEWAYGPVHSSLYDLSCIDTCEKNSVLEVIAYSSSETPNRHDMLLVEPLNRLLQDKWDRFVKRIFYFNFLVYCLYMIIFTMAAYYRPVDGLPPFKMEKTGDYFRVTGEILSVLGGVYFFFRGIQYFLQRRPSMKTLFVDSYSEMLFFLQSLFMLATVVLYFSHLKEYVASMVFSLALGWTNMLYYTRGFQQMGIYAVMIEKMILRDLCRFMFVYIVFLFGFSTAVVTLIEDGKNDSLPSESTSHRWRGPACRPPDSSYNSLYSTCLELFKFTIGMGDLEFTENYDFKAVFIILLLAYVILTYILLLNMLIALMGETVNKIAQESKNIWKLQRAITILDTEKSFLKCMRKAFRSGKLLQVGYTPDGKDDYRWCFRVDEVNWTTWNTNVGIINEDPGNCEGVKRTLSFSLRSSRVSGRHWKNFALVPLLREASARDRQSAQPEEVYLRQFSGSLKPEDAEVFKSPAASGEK

Work on `CC(C)(C)C#Cc1ccc(C(=O)Nc2cnc3ccccc3c2)cc1` [Compound 24] yielded an inhibition at 0.3 µM of 101%.
`CC1(C)Oc2cc(NC(=O)c3ccc(/C=C/C(F)(F)F)cc3)ccc2NC1=O` [Compound 71] showed an inhibition at 0.3 µM of 10%.
`CC(C)(C)C#Cc1ccc(C(=O)Nc2ccc3c(c2)OCCO3)cc1` [Compound 30] showed an inhibition at 0.3 µM of 105%.
For `O=C(Nc1ccc2c(c1)OCCO2)c1ccc(C#CC(F)(F)F)cc1` [Compound 43], the inhibition at 0.3 µM was 105%.
Compound `O=C(Nc1ccc2c(c1)NCCO2)c1ccc(C#CC2CCCC2)cc1` [Compound 106] has an inhibition at 0.3 µM of 5%.
Work on `Cc1cc2c(NC(=O)c3ccc(/C=C/C(F)(F)F)cc3C)cccc2cn1` [Compound 196] yielded an inhibition at 0.3 µM of 86%.
With `CC(C)(C)C#Cc1ccc(C(=O)Nc2ccc3c(c2)N(CCN2CCOCC2)CC3(C)C)cc1` [Compound 67] the inhibition at 0.3 µM was 8%.
`CC(C)(C)C#Cc1cc(F)c(C(=O)Nc2cnc3ccccc3c2)c(F)c1` [Compound 179] was tested, and the inhibition at 0.3 µM was 100%.
`O=C(Nc1cnc2ccccc2c1)c1ccc(C#CC2CC2)cc1` [Compound 47] gave an inhibition at 0.3 µM of 55%.
Compound `O=C(Nc1ccc2c(c1)OCCO2)c1ccc(C#CC2CC2)cc1F` [Compound 145] has an inhibition at 0.3 µM of 41%.
`CC(=O)N1CC(C)(C)c2ccc(NC(=O)c3ccc(C#CC(C)(C)C)cc3)cc21` [Compound 68] gave an inhibition at 0.3 µM of 140%.
For `CS(=O)(=O)OCC1COc2cc(NC(=O)c3ccc(C#CC4CCCC4)cc3)ccc2O1` (stereo not drawn) [Compound 116], the “Low pH % Inhib. @ 0.3 μM” value was 10%.
With `O=C(Nc1ccc2c(c1)OCCN2)c1ccc(C#CC(F)(F)F)cc1` [Compound 70] the inhibition at 0.3 µM was 185%.
`Cc1cc(C#CC2CCCC2)ccc1C(=O)Nc1ccc2c(c1)OCCO2` [Compound 140] was tested, and the inhibition at 0.3 µM was 33%.
Compound `O=C(Nc1ccc2c(c1)OCCN2)c1ccc(/C=C/C(F)(F)F)cc1Cl` [Compound 148] has an inhibition at 0.3 µM of 104%.
Compound `CN1CCOc2cc(NC(=O)c3ccc(/C=C/C(F)(F)F)cc3)ccc21` [Compound 73] has an inhibition at 0.3 µM of 94%.
For `C/C(=C/C(C)(C)C)c1ccc(C(=O)Nc2ccc3[nH]ccc3c2)cc1` [Compound 16], the inhibition at 0.3 µM was 21%.
In the case of `Cc1cc(C#CC2CC2)ccc1C(=O)Nc1ccc2c(c1)OCCN2` [Compound 153], the inhibition at 0.3 µM is reported as 104%.
Work on `O=C(Nc1ccc2c(c1)OCCN2)c1ccc(C#CC2CC2)cc1F` [Compound 143] yielded an inhibition at 0.3 µM of 100%.
Work on `Cc1cc2c(NC(=O)c3ccc(/C=C/C(F)(F)F)cc3)cccc2cn1` [Compound 114] yielded an inhibition at 0.3 µM of 90%.
Compound `CCn1c2ccccc2c2cc(NC(=O)c3ccc(/C(C)=C\C(C)(C)C)cc3)ccc21` [Compound 19] has an inhibition at 0.3 µM of 14%.
`O=C(Nc1ccc2c(c1)OCC(CO)O2)c1ccc(C#CC2CC2)cc1Cl` (stereo not drawn) [Compound 156] gave an inhibition at 0.3 µM of 102%.
Work on `CC(C)(C)C#Cc1ccc(C(=O)Nc2cccc3cnccc23)c(Cl)n1` [Compound 66] yielded an inhibition at 0.3 µM of 10%.
`CC(C)(C)C#Cc1ccc(C(=O)Nc2cccc3cnccc23)c(F)c1` [Compound 175] showed an inhibition at 0.3 µM of 95%.
`Cc1nc2cc(NC(=O)c3ccc(C#CC(C)(C)C)cc3)ccc2s1` [Compound 56] was tested, and the inhibition at 0.3 µM was 104%.
With `Cc1cc(/C=C/C(F)(F)F)ccc1C(=O)Nc1ccc2cccnc2c1` [Compound 224] the inhibition at 0.3 µM was 82%.
With `O=C(Nc1ccc2c(c1)OC[C@H](CO)N2)c1ccc(C#CC2CC2)cc1F` [Compound 171] the inhibition at 0.3 µM was 112%.
For `O=C(Nc1cccc2cnccc12)c1ccc(C#CC2CCCC2)cc1` [Compound 101], the inhibition at 0.3 µM was 94%.
`O=C(Nc1cc2c(cc1Cl)NCCO2)c1ccc(/C=C/C(F)(F)F)cc1` [Compound 136] showed an inhibition at 0.3 µM of 50%.
`Cc1cc(C#CC(C)(C)C)ccc1C(=O)Nc1ccc2c(c1)C(=O)NC2=O` [Compound 213] gave an inhibition at 0.3 µM of 88%.
For `Cc1cc(/C=C/C(F)(F)F)ccc1C(=O)Nc1ccc2c(c1)OCCO2` [Compound 190], the inhibition at 0.3 µM was 87%.
Work on `O=C(Nc1ccc2c(c1)OCC(CO)O2)c1ccc(/C=C/C(F)(F)F)cc1F` (stereo not drawn) [Compound 149] yielded an inhibition at 0.3 µM of 71%.
Compound `O=C(Nc1ccc2c(c1)S(=O)(=O)C=C2)c1ccc(/C=C/C(F)(F)F)cc1` [Compound 92] has an inhibition at 0.3 µM of 71%.
For `Cn1ccc2ccc(NC(=O)c3ccc(C#CC(C)(C)C)nc3)cc21` [Compound 44], the inhibition at 0.3 µM was 87%.
Work on `CC(C)(C)C#Cc1ccc(C(=O)Nc2ccc3c(c2)OC(F)(F)O3)cc1` [Compound 50] yielded an inhibition at 0.3 µM of 5%.
Compound `CN1C(=O)COc2ccc(NC(=O)c3ccc(/C=C/C(F)(F)F)cc3)cc21` [Compound 84] has an inhibition at 0.3 µM of 45%.
`CC(C)(C)C#Cc1ccc(C(=O)Nc2ccc3c(c2)OCO3)cn1` [Compound 26] was tested, and the inhibition at 0.3 µM was 104%.
`CC(C)(C)C#Cc1ccc(C(=O)Nc2cccc3cnccc23)cn1` [Compound 23] showed an inhibition at 0.3 µM of 98%.
`CC(C)(C)C#Cc1ccc(C(=O)Nc2ccc3c(c2)OCCO3)c(F)c1` [Compound 155] gave an inhibition at 0.3 µM of 95%.
For `CC(C)/C=C/c1ccc(C(=O)Nc2ccc3[nH]ccc3c2)cc1` [Compound 9], the inhibition at 0.3 µM was 37%.
Work on `Cn1ccc2cc(NC(=O)c3ccc(C#CC(C)(C)C)cc3)ccc21` [Compound 33] yielded an inhibition at 0.3 µM of 105%.
In the case of `O=C(Nc1ccc2c(c1)OCCO2)c1ccc(C#CC2CC2)cc1` [Compound 49], the inhibition at 0.3 µM is reported as 96%.
In the case of `Cc1cc(/C=C/C(F)(F)F)ccc1C(=O)Nc1cnc2c(c1)CNCC2` [Compound 229], the inhibition at 0.3 µM is reported as 54%.
Compound `Cc1cc(C#CC(C)(C)C)ccc1C(=O)Nc1cnc2[nH]c(CO)nc2c1` [Compound 218] has an inhibition at 0.3 µM of 6%.
Work on `Cc1cc(C#CC(C)(C)C)ccc1C(=O)Nc1cnc2[nH]ccc2c1` [Compound 212] yielded an inhibition at 0.3 µM of 97%.
Work on `CC(C)(O)COc1cc(C(=O)Nc2ccc3c(c2)OCCO3)ccc1C#CC1CC1` [Compound 110] yielded an inhibition at 0.3 µM of 1%.
In the case of `CC(C)(C)/C=C/c1ccc(C(=O)Nc2cccc3cnccc23)cc1` [Compound 40], the inhibition at 0.3 µM is reported as 86%.
Work on `Cn1ccc2cc(NC(=O)c3ccc(/C=C/C(F)(F)F)cc3)ccc21` [Compound 37] yielded an inhibition at 0.3 µM of 17%.
`CC(C)(C)C#Cc1ccc(C(=O)Nc2ccc3c(c2)OCO3)cc1` [Compound 28] showed an inhibition at 0.3 µM of 102%.
`O=C(Nc1ccc2nccnc2c1)c1ccc(/C=C/C(F)(F)F)cc1` [Compound 115] was tested, and the inhibition at 0.3 µM was 90%.
Work on `Cn1ccc2cc(NC(=O)c3ccc(C#CC(C)(C)C)nc3)ccc21` [Compound 25] yielded an inhibition at 0.3 µM of 105%.
For `CC(C)(C)C#Cc1ccc(C(=O)Nc2ccc3c(c2)OC[C@@H](CO)N3)c(Cl)c1` [Compound 183], the inhibition at 0.3 µM was 98%.
Compound `COc1cc(C#CC(C)(C)C)ccc1C(=O)Nc1ccc2c(c1)OCCN2` [Compound 128] has an inhibition at 0.3 µM of 12%.
Work on `CN1CCCc2ccc(NC(=O)c3ccc(C#CC4CC4)cc3)cc21` [Compound 80] yielded an inhibition at 0.3 µM of 92%.
Compound `O=C(Nc1cnc2ccccc2c1)c1ccc(/C=C/C(F)(F)F)cc1F` [Compound 178] has an inhibition at 0.3 µM of 9%.
Compound `CC(C)(C)C#Cc1ccc(C(=O)Nc2ccc3c(c2)OCCN3)c(Cl)c1` [Compound 146] has an inhibition at 0.3 µM of 93%.
`CC(C)(C)C#Cc1ccc(C(=O)Nc2ccc3c(c2)OCCN3)c(F)c1` [Compound 137] gave an inhibition at 0.3 µM of 103%.
With `O=C(Nc1ccc2c(c1)OCCN2)c1ccc(C#CC2CCCC2)cc1` [Compound 117] the inhibition at 0.3 µM was 98%.
With `O=C(Nc1ccc2c(c1)OC(CO)CO2)c1ccc(C#CC2CC2)cc1` (stereo not drawn) [Compound 86] the inhibition at 0.3 µM was 83%.
`CN1C(=O)C(C)(C)Oc2ccc(NC(=O)c3ccc(/C=C/C(F)(F)F)cc3)cc21` [Compound 78] showed an inhibition at 0.3 µM of 32%.
Compound `CC(C)/C=C/c1ccc(C(=O)Nc2ccc3c(c2)Cc2ccccc2-3)cc1` [Compound 13] has an inhibition at 0.3 µM of 11%.
Work on `CC(C)(C)C#Cc1cc(Cl)c(C(=O)Nc2ccc3c(c2)OCC(CO)O3)cc1F` (stereo not drawn) [Compound 191] yielded an inhibition at 0.3 µM of 83%.
Work on `O=C(Nc1ccc2c(c1)OCCN2)c1ccc(C#CC2CC2)cc1Cl` [Compound 147] yielded an inhibition at 0.3 µM of 88%.
Work on `O=C(Nc1ccc2c(c1)OCCN2)c1c(F)cc(C#CC2CC2)cc1F` [Compound 130] yielded an inhibition at 0.3 µM of 104%.
For `Cc1cc(C#CC(C)(C)C)ccc1C(=O)Nc1ccc2c(c1)OCC(CO)O2` (stereo not drawn) [Compound 186], the inhibition at 0.3 µM was 91%.
With `Cc1cc(/C=C/C(F)(F)F)ccc1C(=O)Nc1ccc2c(c1)OCC(CO)O2` (stereo not drawn) [Compound 185] the inhibition at 0.3 µM was 92%.
Compound `CC1=Cc2c(cccc2NC(=O)c2ccc(/C=C/C(F)(F)F)cc2)NN1` [Compound 113] has an inhibition at 0.3 µM of 9%.
Compound `Cc1cc(/C=C/C(F)(F)F)ccc1C(=O)Nc1cnc2[nH]ccc2c1` [Compound 230] has an inhibition at 0.3 µM of 99%.
With `O=C(Nc1ccc2sc(CO)nc2c1)c1ccc(/C=C/C(F)(F)F)cc1` [Compound 55] the inhibition at 0.3 µM was 101%.
In the case of `CC(C)(C)C#Cc1ccc(C(=O)Nc2ccc3c(c2)OCC(CO)O3)cc1` (stereo not drawn) [Compound 81], the inhibition at 0.3 µM is reported as 98%.
`COc1cc(/C=C\C(F)(F)F)ccc1C(=O)Nc1ccc2c(c1)OCCO2` [Compound 121] was tested, and the inhibition at 0.3 µM was 19%.
In the case of `Cc1cc(C#CC(C)(C)C)ccc1C(=O)Nc1cnc2cc(CO)ccc2c1` [Compound 216], the inhibition at 0.3 µM is reported as 31%.
In the case of `CC1(C)CNc2ccc(NC(=O)c3ccc(/C=C/C(F)(F)F)cc3)cc2O1` [Compound 72], the inhibition at 0.3 µM is reported as 124%.
With `CC(C)(C)C#Cc1ccc(C(=O)Nc2ccc3c(c2)OCC(CO)O3)c(F)c1` (stereo not drawn) [Compound 154] the inhibition at 0.3 µM was 95%.
`CC(C)(C)/C=C/c1ccc(C(=O)Nc2ccc3c(c2)OCCO3)cc1` [Compound 1] was tested, and the inhibition at 0.3 µM was 83%.
Compound `O=C(Nc1ccc2c(c1)OC[C@@H](CO)N2)c1ccc(C#CC2CC2)cc1F` [Compound 169] has an inhibition at 0.3 µM of 112%.
`CC(C)(C)C#Cc1ccc(C(=O)Nc2cnc3ccccc3c2)c(F)c1` [Compound 174] was tested, and the inhibition at 0.3 µM was 97%.
Work on `O=C(Nc1ccc2c(c1)OCC(CO)O2)c1ccc(C#CC2CC2)cc1` (stereo not drawn) [Compound 87] yielded an inhibition at 0.3 µM of 98%.
With `CC(C)/C=C/c1ccc(C(=O)Nc2ccc3c(c2)OCCO3)cc1` [Compound 8] the inhibition at 0.3 µM was 26%.
For `CC(C)(C)C#Cc1ccc(C(=O)Nc2ccc3c(c2)OC(CO)CO3)cc1` (stereo not drawn) [Compound 82], the inhibition at 0.3 µM was 76%.
Work on `CC(C)(C)C#Cc1ccc(C(=O)Nc2cccc3cnccc23)nc1` [Compound 91] yielded an inhibition at 0.3 µM of 21%.
